Measurements: patent publication US8975223B2, “Methods for treating metabolic disorders and obesity with a peptide comprising the amino acid sequence of SEQ ID No. 146” (Marcadia Biotech, Inc., priority 2010, dated 2015)
“Also recorded” adds a separate entry of the source. Where no end group is shown, it is not given here. [ ]: non-standard residue; d: D form. Aib = CC(C)(N)C(=O)O

Columns and labels:
Assay type in all cases: in vivo, human
[1] = Phase I single-ascending dose study, safety, tolerability, PK and PD, single SC injection; conditions: for mean daily fasting glucose level by day 7: healthy subjects (placebo 78.7)
Procedure: A Phase I, randomized, placebo-controlled, sequential, single-ascending, two period, study was performed in healthy male subjects to evaluate the safety, tolerability, pharmacokinetic (PK), and pharmacodynamic (PD) properties of extended half-life GLP-1/GIP coagonist peptide. Healthy adult male subjects (about 18 to 55 years of age) who were in general good health based on medical history, physical examination, ECG, and routine laboratory tests (e.g., blood, chemistry, hematology, urinalysis, and drug screen) with a body mass index between 20 kg/m^2 and 30 kg/m^2 were selected for the study. The extended half-life GLP-1/GIP coagonist peptide tested in all of the Examples was SEQ ID NO: 153.
The subjects were randomized into cohorts.
Following an overnight fast of at least 10 hours, the subjects received a single dose of the study drug or placebo as a subcutaneous (SC) injection in the abdomen. Blood samples were collected for fasting insulin, glucose, and glucagon levels pre-dose (i.e., within 30 minutes prior to dosing) on Day 1 and on Days 2, 3, 4, 5, 6, and 7. Plasma samples for pharmacokinetic analysis were collected pre-dose and at 0.5, 1, 2, 4, 8, and 12 hours post-dose on Day 1 and on Days 2, 3, 4, 5, 6, 7, 14, 28, and 35. The subjects were monitored through Day 35 for adverse events, weight, and vital signs.

[2] = system: beta cell response to a glucose load; experiment: Phase I two-part study, beta cell response to graded glucose infusion; conditions: for LS mean change in insulin secretion rate at each glucose infusion rate, placebo vs treatment: 72 hours after dosing, p<0.001
Procedure: (§1) A Phase I, randomized, placebo-controlled, positive-controlled two-part study was performed in healthy male and female subjects to evaluate the effect of a range of doses on beta cell response to a glucose load and to assess the effect of these doses on gastric emptying. Beta cell function was assessed by calculation of prehepatic insulin secretion in response to a graded glucose infusion. Gastric emptying was assessed by measurement of plasma appearance of ingested acetaminophen.
(§2) During Part 2, subjects in Cohort 2 received placebo on Day 1, followed by 8 mg of the extended half-life GLP-1/GIP coagonist peptide on Day 2. Subjects in Cohort 3 received placebo on Day 1, followed by 4 mg of the extended half-life GLP-1/GIP coagonist peptide on Day 2. Subjects in Cohort 4 received placebo on Day 1, followed by 16 mg of the extended half-life GLP-1/GIP coagonist peptide on Day 2.
(§3) Blood samples for glucose, C-peptide, insulin, and safety laboratory tests were drawn at −120, −15, and −10 minutes. At −10 minutes, subjects ingested 1000 mg acetaminophen elixir with 240 mL water. At 0 minutes, a step-wise infusion of glucose (20% dextrose) was started, a second SC injection of placebo was administered, and blood samples for glucose, C-peptide, insulin, and safety laboratory tests were drawn. Glucose was infused for a total of 2.5 hours at a rate of 2, 4, 6, 8, and 12 mg/kg/min. Each level of glucose infusion was maintained for 30 minutes. Blood samples for glucose, C-peptide, and insulin were drawn again at 10, 20, and 30 minutes during each 30-minute infusion period. Blood samples for plasma acetaminophen concentration were drawn at −10, 30, 60, 90, 120, 150, 180, 210, 240, 300, and 480 minutes.
(§4) Blood samples for glucose, C-peptide, and insulin were drawn at −120, −15, and −10 minutes. At −10 minutes, subjects ingested 1000 mg acetaminophen elixir with 240 mL water. […] Glucose was infused for a total of 2.5 hours at a rate of 2, 4, 6, 8, and 12 mg/kg/min. Each level of glucose infusion was maintained for 30 minutes. […] Blood samples for glucose, C-peptide, and insulin were drawn at 10, 20, and 30 minutes during each 30-minute infusion period. Blood samples for plasma acetaminophen concentration were drawn at −10, 30, 60, 90, 120, 150, 180, 210, 240, 300, and 480 minutes.
(§5) Blood samples for glucose, C-peptide, insulin, and safety laboratory tests were drawn at −15 and −10 minutes. At −10 minutes, subjects ingested 1000 mg acetaminophen elixir with 240 mL water. At 0 minutes, a step-wise infusion of glucose (20% dextrose) was started and blood samples for glucose, C-peptide, and insulin were drawn. Glucose was infused for a total of 2.5 hours at a rate of 2, 4, 6, 8, and 12 mg/kg/min. Each level of glucose infusion was maintained for 30 minutes. Blood samples for glucose, C-peptide, and insulin were drawn again at 10, 20, and 30 minutes during each 30-minute infusion period. Blood samples for plasma acetaminophen concentration were drawn at −10, 30, 60, 90, 120, 150, 180, 210, 240, 300, and 480 minutes.
On Day 2, following an overnight fast of 10 hours, a blood sample for glucose, C-peptide, and insulin was drawn at −10 minutes. Subjects received an injection of extended half-life GLP-1/GIP coagonist peptide at 0 minutes. Subjects in Cohort 2 received 8 mg of extended half-life GLP-1/GIP coagonist peptide, subjects in Cohort 3 received 4 mg of extended half-life GLP-1/GIP coagonist peptide, and subjects in Cohort 4 received 16 mg of extended half-life GLP-1/GIP coagonist peptide. At 0 minutes, a blood sample for extended half-life GLP-1/GIP coagonist peptide concentration, C-peptide, insulin, glucose, and safety laboratory tests was drawn.
At −10 minutes, subjects ingested 1000 mg acetaminophen elixir with 240 mL water. […] Glucose was infused for a total of 2.5 hours at a rate of 2, 4, 6, 8, and 12 mg/kg/min. Each level of glucose infusion was maintained for 30 minutes.

[3] = system: gastric emptying; experiment: Phase I two-part study, gastric emptying by plasma appearance of ingested acetaminophen
Procedure: as §1, §2, §3, §4, §5
At −10 minutes, subjects ingested 1000 mg acetaminophen elixir with 240 mL water. […] Glucose was infused for a total of 2.5 hours at a rate of 2, 4, 6, 8, and 12 mg/kg/min. Each level of glucose infusion was maintained for 30 minutes. […] Blood samples for plasma acetaminophen concentration were drawn at −10, 30, 60, 90, 120, 150, 180, 210, 240, 300, and 480 minutes.

[4] = 4 mg, 8 mg, 16 mg, graded glucose infusion
[5] = 4 mg, 8 mg, 16 mg, 72 hours after dosing

In the case of “extended half-life GLP-1/GIP coagonist peptide: The extended half-life GLP-1/GIP coagonist peptide tested in all of the Examples was SEQ ID NO: 153 (Y[Aib]EGTFTSDYSIYLDKQAA[Aib]EFVC(PEG 40 kDa)WLLAGGPSSGAPPPSK-NH2)”, the “AUC (AUC0-144)” value ([1]; 0.1 mg single SC dose, plasma) is reported as 12,349 pM·hr, the Cmax ([1]; 0.1 mg single SC dose, plasma) is reported as 0.183 nM and the “AUC (AUC0-144)” value ([1]; 8 mg single SC dose, plasma) is reported as 1,382,376 pM·hr. The Cmax ([1]; 8 mg single SC dose, plasma) was 13 nM, the “mean daily fasting glucose level by day 7” value ([1]; 16 mg dose) was 76.5 mg/dL and the “time to maximum observed plasma concentration (Tmax)” value (“time” for short) ([1]; 16 mg single SC dose) was 112.5 h. For the same substance, the “mean daily fasting glucose level by day 7” value ([1]; 24 mg dose) was 72.7 mg/dL, the “time” value ([1]; 24 mg single SC dose) was 56.0 h and the “mean daily fasting glucose level by day 7” value ([1]; 32 mg dose) was 71.7 mg/dL. The “time” value ([1]; 32 mg single SC dose) was 80.0 h, the “AUC (AUC0-last)” value ([1]; 32 mg single SC dose, plasma) was 12,582 nM·hr and the Cmax ([1]; 32 mg single SC dose, plasma) was 54.8 nM. For the same substance, the absolute bioavailability ([1]; SC injection) was 100%, the “dose proportionality of AUC and Cmax” value ([1]; doses ranging from 0.1 mg to 32 mg) was “dose proportional” and the “dose-related trends for fasting insulin, glucose and glucagon levels” value ([1]; healthy subjects) was “No dose-related trends”. The “apparent t1/2” value ([1]; plasma, single SC dose, healthy male subjects) was “approximately 5 days”, the safety and tolerability ([1]; single SC doses 0.1 mg to 32 mg, healthy male subjects) was “generally safe and well tolerated; also recorded: well tolerated and not associated with adverse events, clinically important laboratory findings, or ECG findings” and the “LS mean change in C peptide, comparison between dose groups” value ([2]; 4 mg vs 8 mg groups, p=0.0055) was 0.01 ng/mL per mg/dL. For the same substance, the “LS mean change in insulin secretion rate, comparison between dose groups” value ([2]; 4 mg vs 8 mg groups, p=0.0067) was 0.01 μIU/mL per mg/dL, the “LS mean change in insulin, comparison between dose groups” value ([2]; 4 mg vs 8 mg groups, p=0.0251) was 0.09 μIU/mL per mg/dL and the “LS mean change in C peptide, comparison between dose groups” value ([2]; 4 mg vs 16 mg groups, p<0.0001) was 0.03 ng/mL per mg/dL. The “LS mean change in insulin secretion rate, comparison between dose groups” value ([2]; 4 mg vs 16 mg groups, p<0.0001) was 0.04 μIU/mL per mg/dL, the “LS mean change in insulin, comparison between dose groups” value ([2]; 4 mg vs 16 mg groups, p<0.0001) was 0.17 μIU/mL per mg/dL and the “C-peptide level in comparison to placebo” value [2, 4] was “dose dependent, dose proportional, increase”. The “insulin secretion rate (ISR) in comparison to placebo” value [2, 4] was “dose dependent, dose proportional, increase”, the “LS mean change in insulin secretion rate at each glucose infusion rate, placebo vs treatment” value ([2]; 4 mg) was 0.03 μIU/mL and the “LS mean change in C peptide at each glucose infusion rate, placebo vs treatment” value (“LS mean change in C peptide … vs treatment” for short) ([2]; 4 mg, p<0.0001) was 0.02 ng/mL per mg/dL. The “LS mean change in insulin at each glucose infusion rate, placebo vs treatment” value ([2]; 4 mg, p<0.0001) was 0.27 μIU/mL per mg/dL, the “LS mean change in C peptide, comparison between dose groups” value ([2]; 8 mg vs 16 mg groups, p<0.0001) was 0.02 ng/mL per mg/dL and the “LS mean change in insulin secretion rate, comparison between dose groups” value ([2]; 8 mg vs 16 mg groups, p<0.0001) was 0.03 μIU/mL per mg/dL. For the same substance, the “LS mean change in insulin, comparison between dose groups” value ([2]; 8 mg vs 16 mg groups, p=0.0316) was 0.08 μIU/mL per mg/dL, the “LS mean change in insulin secretion rate at each glucose infusion rate, placebo vs treatment” value ([2]; 8 mg) was 0.04 μIU/mL and the “LS mean change in C peptide … vs treatment” value ([2]; 8 mg, p<0.0001) was 0.03 ng/mL per mg/dL. The “LS mean change in insulin at each glucose infusion rate, placebo vs treatment” value ([2]; 8 mg, p<0.0001) was 0.35 μIU/mL per mg/dL, the “increase in insulin secretion rate” value ([2]; 16 mg (maximum dose), vs placebo, p=0.001) was “approximately 44%” and the “change in glucose levels between the 8 mg/kg/min and 12 mg/kg/min infusion rates” value ([2]; 16 mg and 8 mg groups) was “no increases in glucose levels”. The “LS mean change in insulin secretion rate at each glucose infusion rate, placebo vs treatment” value ([2]; 16 mg) was 0.07 μIU/mL, the “LS mean change in C peptide … vs treatment” value ([2]; 16 mg, p<0.0001) was 0.05 ng/mL per mg/dL and the “LS mean change in insulin at each glucose infusion rate, placebo vs treatment” value ([2]; 16 mg, p<0.0001) was 0.43 μIU/mL per mg/dL. The “glucose levels compared to placebo group” value ([2]; all dose groups, all glucose infusion rates) was “lower glucose levels than the placebo group”, the “Cmax of plasma acetaminophen” value [3, 5] was “trend toward lower Cmax at a higher dose” and the “Tmax of plasma acetaminophen compared to placebo” value [3, 5] was “not significantly different from placebo”. For the same substance, the “total acetaminophen absorbed (AUC0-4 hr) compared to placebo” value [3, 5] was “not significantly different from placebo”, the “delay in the absorption of acetaminophen” value ([3]; 4 mg, 8 mg, 16 mg, 72 hours after dosing, 1000 mg acetaminophen) was “not associated with a significant delay” and the “effect on gastric emptying” value ([3]; doses that increase insulin secretion in response to a glucose infusion) was “does not delay gastric emptying”.
